Measurements from patent US20230031406A1, “COMPOUNDS AND COMPOSITIONS FOR TREATING CONDITIONS ASSOCIATED WITH NLRP ACTIVITY” (Novartis AG, priority 2018, published 2023).
Like-named read-outs stand apart in the source and are kept apart here. One block for each molecule: values may come before it.

Test system: PMA-differentiated THP-1 cells
Test: IL-1β production in PMA-differentiated THP-1 cells stimulated with gramicidin (hTHP-1 assay containing 2% fetal bovine serum; Procedures 1 and 2)
Format: cell-based, human
Conditions: 2% fetal bovine serum
Procedure, shortened: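 Compound titrations in 0.37% final DMSO were added to THP-1 cells that had been plated after 16-18 h PMA treatment, 50,000 per well in 2% FBS. One hour later the cells received gramicidin (5 μM, 2 h) and were centrifuged. HTRF detected IL-1β in the collected supernatants.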

[1] = Table B3, hTHP-1 assay, class symbols, read-out: IC50
[2] = Homo sapiens, THP-1, Table B2, class symbols, read-out: hTHP-1 IC50
[3] = Table B1, class symbols, read-out: Average IC50 of compounds in hTHP-1 assay: hTHP-1 IC50
[4] = Homo sapiens, THP-1, Table B2, numeric bounds, read-out: hTHP-1 IC50
[5] = Homo sapiens, THP-1, Table B1, class symbols, read-out: Average IC50 of compounds in hTHP-1 assay: hTHP-1 IC50
[6] = Homo sapiens, THP-1, Table B3, hTHP-1 assay, numeric values, read-out: IC50

SMILES: Cc1sc(S(N)(=O)=NC(=O)Nc2c3c(nc4c2CCC4C)CCC3)nc1C(C)(C)O (single isomer, unassigned) [Compound 104b, (S,R/S) or (R,R/S)-4-(2-hydroxypropan-2-yl)-5-methyl-N′-((3-methyl-1,2,3,5,6,7-hexahydrodicyclo-penta[b,e]pyridin-8-yl)carbamoyl)thiazole-2-sulfonimidamide]
IC50 [3]: 5000 to 30000 nM

SMILES: CC1CCc2c1nc1c(c2NC(=O)N=S(N)(=O)c2sc(C(C)(C)O)nc2CO)CCC1 (single isomer, unassigned) [Compound 168ba, (R,S) or (R,R)-4-(hydroxymethyl)-2-(2-hydroxypropan-2-yl)-N′-((3-methyl-1,2,3,5,6,7-hexahydrodicyclo-penta[b,e]pyridin-8-yl)carbamoyl)thiazole-5-sulfonimidamide]
IC50 [3]: 200 to 1000 nM

SMILES: CC(C)(O)c1csc(S(N)(=O)=NC(=O)Nc2cc(C3CC3)nc3c2CCC3)c1 (single isomer, unassigned) [Compound 176b, (R) or (S)-N′-((2-cyclopropyl-6,7-dihydro-5H-cyclopenta[b]pyridin-4-yl)carbamoyl)-4-(2-hydroxypropan-2-yl)thiophene-2-sulfonimidamide]
IC50 [2]: 1000 to 5000 nM

SMILES: CC(C)(O)c1ccc(S(N)(=O)=NC(=O)Nc2c3c(nc4c2CCC4)CCC3)s1 (single isomer, unassigned) [Compound 149a, (R) or (S)-N′-((1,2,3,5,6,7-hexahydrodicyclo-penta[b,e]pyridin-8-yl)carbamoyl)-5-(2-hydroxypropan-2-yl)thiophene-2-sulfonimidamide]
IC50 [5]: 200 to 1000 nM

SMILES: Cc1nc(C(C)(C)O)ccc1S(N)(=O)=NC(=O)Nc1c2c(nc3c1CCC3)CCC2 (centres unmarked) [Compound 157, N′-((1,2,3,5,6,7-hexahydrodicyclopenta[b,e]pyridin-8-yl)carbamoyl)-6-(2-hydroxypropan-2-yl)-2-methylpyridine-3-sulfonimidamide]
IC50 [5]: 5000 to 30000 nM

SMILES: CC(C)c1c(-c2ccccc2)nc2c(c1NC(=O)N=S(N)(=O)c1cnc(C(C)(C)O)s1)CCC2 (single isomer, unassigned) [Compound 145a, (R) or (S)-2-(2-hydroxy-propan-2-yl)-N′-((3-isopropyl-2-phenyl-6,7-dihydro-5H-cyclopenta[b]pyridin-4-yl)carbamoyl)thiazole-5-sulfonimidamide]
IC50 [3]: 200 to 1000 nM

SMILES: CC(C)c1ncc(F)c(C(C)C)c1NC(=O)N=S(N)(=O)c1nc(C(C)(C)O)cs1 (centres unmarked) [Compound 163, N′-((5-fluoro-2,4-diisopropylpyridin-3-yl)carbamoyl)-4-(2-hydroxypropan-2-yl)thiazole-2-sulfonimidamide]
IC50 [5]: 200 to 1000 nM

SMILES: CC(C)(O)c1ncc(S(N)(=O)=NC(=O)Nc2c3c(nc4c2CCC4=O)CCC3)s1 (centres unmarked) [compound 593, 2-(2-Hydroxypropan-2-yl)-N′-((3-oxo-1,2,3,5,6,7-hexahydrodicyclopenta[b,e]pyridin-8-yl)carbamoyl)thiazole-5-sulfonimidamide]
IC50 [6]: > 30000 nM

SMILES: Cc1c(C(F)(F)F)nc2c(c1NC(=O)N=[S@](N)(=O)c1cnc(C(C)(C)O)s1)CC[C@@H]2C [Compound 608a]
IC50 [2]: 200 to 1000 nM

SMILES: CC1CCc2c1nc1c(c2NC(=O)N=S(N)(=O)c2sc(C(C)(C)O)nc2CO)CCC1 (single isomer, unassigned) [Compound 168aa, (S,S) or (S,R)-4-(hydroxymethyl)-2-(2-hydroxypropan-2-yl)-N′-((3-methyl-1,2,3,5,6,7-hexahydrodicyclo-penta[b,e]pyridin-8-yl)carbamoyl)thiazole-5-sulfonimidamide]
IC50 [3]: 5000 to 30000 nM

SMILES: Cc1c(C(C)C)nc2c(c1NC(=O)N=S(N)(=O)c1cnc(C(C)(C)O)s1)CCC2 (centres unmarked) [Compound 650, 2-(2-Hydroxypropan-2-yl)-N′-((2-isopropyl-3-methyl-6,7-dihydro-5H-cyclopenta[b]pyridin-4-yl)carbamoyl)thiazole-5-sulfonimidamide]
IC50 [2]: 200 to 1000 nM

The next lines start with the values.

IC50 [1]: 1000 to 5000 nM
SMILES: NS(=O)(=NC(=O)Nc1c2c(nc3c1CCC31CC1)CCC2)c1nn(C(F)F)cc1F (single isomer, unassigned) [Example 682, (S) or (R)-1-(difluoromethyl)-4-fluoro-N′-((1′,5′,6′,7′-tetrahydro-2′H-spiro[cyclopropane-1,3′-dicyclopenta[b,e]pyridin]-8′-yl)carbamoyl)-1H-pyrazole-3-sulfonimidamide]

IC50 [2]: 200 to 1000 nM
SMILES: CC1(C)CCc2c1nc1c(c2NC(=O)N=S(N)(=O)c2cnc(C(C)(CO)CO)s2)CCC1 (centres unmarked) [Compound 724]

IC50 (Table B4, class symbols, read-out: hTHP-1 IC50): 200 to 1000 nM
SMILES: CCn1cc(F)c(S(N)(=O)=NC(=O)Nc2c3c(nc(C(F)(F)F)c2-c2ccccc2)CCC3)n1 (single isomer, unassigned) [Example 768, (S) or (R)-1-ethyl-4-fluoro-N′-((3-phenyl-2-(trifluoromethyl)-6,7-dihydro-5H-cyclopenta[b]pyridin-4-yl)carbamoyl)-1H-pyrazole-3-sulfonimidamide]

IC50 (Homo sapiens, THP-1, Table B1, numeric bounds, read-out: Average IC50 of compounds in hTHP-1 assay: hTHP-1 IC50): > 30000 nM
SMILES: CC1CCc2c1nc1c(c2NC(=O)N=S(N)(=O)c2ncc(C(C)(C)O)s2)CCC1 (single isomer, unassigned) [Compound 140bb, (S,R) or (S,S)-5-(2-hydroxypropan-2-yl)-N′-((3-methyl-1,2,3,5,6,7-hexa-hydrodicyclo-penta[b,e]pyridin-8-yl)carbamoyl)thiazole-2-sulfonimidamide]

IC50 [4]: > 30000 nM
SMILES: CC1(C)CCc2c1nc1c(c2NC(=O)N=S(N)(=O)c2sc(C(C)(O)CO)cc2F)CCC1 (single isomer, unassigned) [Compound 699a, (S, S) and (R, S) or (S, R) and (R, R)-5-(1,2-Dihydroxypropan-2-yl)-N′-((3,3-dimethyl-1,2,3,5,6,7-hexahydrodicyclopenta [b,e]pyridin-8-yl)carbamoyl)-3-fluorotliophene-2-sulfonimidamide]

IC50 [3]: 40 to 200 nM
SMILES: CC1CCc2c1nc1c(c2NC(=O)N=S(N)(=O)c2ccn(C(F)F)n2)CCC1 (single isomer, unassigned) [Compound 184a, (R,R) or (R,S)-1-(difluoro-methyl)-N′-((3-methyl-1,2,3,5,6,7-hexahydro-dicyclopenta[b,e]pyridin-8-yl)carbamoyl)-1H-pyrazole-3-sulfonimidamide]

IC50 [2]: 1000 to 5000 nM
IC50 [4]: > 30000 nM
SMILES: CC1(C)CCc2c1nc1c(c2NC(=O)N=S(N)(=O)c2cnn(C(F)F)c2)CCC1 (single isomer, unassigned) [Compound 637b, (S) or (R)-1-(Difluoromethyl)-N′-((3,3-dimethyl-1,2,3,5,6,7-hexahydrodicyclopenta [b,e]pyridin-8-yl)carbamoyl)-1H-pyrazole-4-sulfonimidamide]

IC50 [2]: 5000 to 30000 nM
SMILES: CC(C)(O)c1ccnc(S(N)(=O)=NC(=O)Nc2c3c(nc4c2CCC4(C)C)CCC3)c1 (centres unmarked) [Compound 620, N′-((3,3-dimethyl-1,2,3,5,6,7-hexahydrodicyclopenta[b,e]pyridin-8-yl)carbamoyl)-4-(2-hydroxypropan-2-yl)pyridine-2-sulfonimidamide]

IC50 [1]: 40 to 200 nM
SMILES: NS(=O)(=NC(=O)Nc1c2c(nc3c1CCC31CC1)CCC2)c1nn(C(F)F)cc1F (single isomer, unassigned) [Example 681, (R) or (S)-1-(difluoromethyl)-4-fluoro-N′-((1′,5′,6′,7′-tetrahydro-2′H-spiro[cyclopropane-1,3′-dicyclopenta[b,e]pyridin]-8′-yl)carbamoyl)-1H-pyrazole-3-sulfonimidamide]

IC50 [5]: 40 to 200 nM
SMILES: CC(C)(O)c1csc(S(N)(=O)=NC(=O)Nc2c3c(nc4c2CCC4(C)C)CCC3)c1 (centres unmarked) [Compound 127, N′-((3,3-dimethyl-1,2,3,5,6,7-hexahydrodicyclopenta[b,e]pyridin-8-yl)carbamoyl)-4-(2-hydroxypropan-2-yl)thiophene-2-sulfonimidamide]

IC50 (Table B2, class symbols, read-out: hTHP-1 IC50): 40 to 200 nM
SMILES: CCn1ccc(S(N)(=O)=NC(=O)Nc2c3c(nc4c2CCC4(C)C)CCC3)n1 (single isomer, unassigned) [Compound 697b, (R) or (S)-N′-((3,3-dimethyl-1,2,3,5,6,7-hexahydrodicyclopenta [b,e]pyridin-8-yl)carbamoyl)-1-ethyl-1H-pyrazole-3-sulfonimidamide]

IC50 [3]: 1000 to 5000 nM
SMILES: CC(C)(O)c1ncc(S(N)(=O)=NC(=O)Nc2c3c(nc4c2CCC4F)CCC3)s1 (single isomer, unassigned) [Compound 183a, (R,R) or (R,S)-N′-((3-fluoro-1,2,3,5,6,7-hexahydrodicyclo-penta[b,e]pyridin-8-yl)carbamoyl)-2-(2-hydroxypropan-2-yl)thiazole-5-sulfonimidamide]

IC50 [6]: > 30000 nM
SMILES: CCn1cc(F)c(S(N)(=O)=NC(=O)Nc2c(C)c(CC(F)(F)F)nc3c2CCC3)n1 (single isomer, unassigned) [Example 718, (S) or (R)-1-ethyl-4-fluoro-N′-((3-methyl-2-(2,2,2-trifluoroethyl)-6,7-dihydro-5H-cyclopenta[b]pyridin-4-yl)carbamoyl)-1H-pyrazole-3-sulfonimidamide]

IC50 [3]: 40 to 200 nM
SMILES: CC(C)(O)c1ncc(S(N)(=O)=NC(=O)Nc2c3c(nc4c2CCC42CC2)CCC3)s1 (single isomer, unassigned) [Compound 136b, (R) or (S)-2-(2-hydroxy-propan-2-yl)-N′-((1′,5′,6′,7′-tetrahydro-2′H-spiro[cyclopropane-1,3′-dicyclopenta[b,e]pyridin]-8′-yl)carbamoyl)thiazole-5-sulfonimidamide]
